Experimental findings from US11202795B2, “Means and methods for treatment of early-onset Parkinson's disease” (VIB VZW, priority 2014, dated 2021) are described below.

Entries after “also recorded” stand apart in the source; their conditions may differ.

One test has as its system PINK1 mutant flies. Description: Flight assay of PINK1 mutant flies fed with FAS inhibitor. Format: in vivo, Drosophila melanogaster. As to the method: FASN is a 273 kDa protein that produces palmitate, which is a precursor of fatty acids in a seven-step enzymatic reaction. FASN uses malonyl CoA and acetyl CoA as substrates. Several inhibitors of FASN function exist. Tests were performed to determine whether defective flight in PINK1 mutants could be pharmacologically rescued.
One-day-old adult flies were placed on molasses medium supplemented with 100 μM Cerulenin (Enzo Life Sciences) or 3 μM Irgasan (Sigma) (2.5% final ethanol concentration) or supplemented with 2.5% ethanol for control medium. […] To determine mitochondrial morphology, embryos were placed on molasses medium supplemented with 100 μM Cerulenin (2.5% final ethanol concentration) or supplemented with 2.5% ethanol for control medium and grown to the third instar larval stage. These third instar larvae were dissected and used for experiments (see below).
The flight assay was conducted on male flies using batches of five flies each. The flies were placed in an empty vial and gently tapped.

For test [1], the system named is control cells (PINK1+/+ MEF and L2134 controls). Description: ATP levels of control cells treated with FASN inhibitor. The test is classed as cell-based. As to the method: Cells were treated with 10 μM Cerulenin (0.1% ethanol) or control medium supplemented with 0.1% ethanol. ATP levels were determined as previously described (Morais et al. (2014) Science 344:203-207) using an ATP determination kit (Invitrogen) according to supplier's protocol. Luminescence was measured on a luminometer (Biorad) and values were normalized to total protein content (Bradford method).

For test [2], the system named is fibroblasts from patients carrying mutations in PINK1 (L1703). Description: ATP levels of fibroblasts from patients carrying PINK1 mutations. The test is classed as cell-based, human. Conditions: patient fibroblasts with PINK1 mutations (L1703), 10 μM Cerulenin vs untreated cells. As for the experimental part: To directly test if further lowering FASN activity in PINK mutant cells rescues the mitochondrial dysfunction in these cells, ATP levels were tested. […] Thus, the inhibition of FASN with an inhibitor rescues in flies and cells isolated from mice and patients the PINK1-induced mitochondrial defects.
(§1) Cells were treated with 10 μM Cerulenin (0.1% ethanol) or control medium supplemented with 0.1% ethanol.
(§2) ATP levels were determined as previously described (Morais et al. (2014) Science 344:203-207) using an ATP determination kit (Invitrogen) according to supplier's protocol. Luminescence was measured on a luminometer (Biorad) and values were normalized to total protein content (Bradford method).

For the next test, the system named is PINK1−/− MEFs. Description: ATP levels of PINK1−/− MEFs treated with FASN inhibitor. Conditions: 10 μM Cerulenin vs untreated cells. The test is classed as cell-based, mice. As to the method: To directly test if further lowering FASN activity in PINK mutant cells rescues the mitochondrial dysfunction in these cells, ATP levels were tested.
as §1, §2

In a further test the test system is PINK−/− MEFs. Nature of the test: Shotgun lipidomics of mitochondrial fractions (cardiolipin levels). Format: cell-based, mice. Conditions: compared to control MEFs.
From the text: Nonetheless, when FASN activity was lowered further in PINK1^−/− mutants, either by genetic or by pharmacological inhibition, the palmitate levels drop further. […] Only unsaturated phosphatidylglycerol (PG) is a good substrate for CL synthase (Bobyleva et al. (1997) Biochem. Mol. Biol. Int. 41:469-480) and high levels of palmitate shift the balance toward more saturated PG (Ostrander et al. (2001) J. Biol. Chem. 276:38061-38067). Opposite to this, it was confirmed that inhibition of FASN results in more unsaturated PG, while wondering if FASN inhibition results in increased CL levels.
as §1
Mitochondria were isolated and resuspended in ammonium bicarbonate buffer. Lipids were extracted and analyzed using shotgun mass spectrometry (lipotype). In short, using Chloroform and Methanol, lipids were extracted via a two-step lipid extraction process. These extracted lipids were then immediately subjected to mass spectrometric analysis. Lipid data were acquired on a hybrid quadrupole/ORBITRAP® mass spectrometer (Q-Exactive, Thermo-Fisher) equipped with an automated nanoflow electrospray ion source (TRIVERSA NANOMATE® Advion) in both positive and negative ion mode. LIPOTYPE® XPLORER® was used to identify lipids on unprocessed mass spectra.

Turning to `Oc1cc(Cl)ccc1Oc1ccc(Cl)cc1Cl` [irgasan], the flight ability result in the test with PINK1 mutant flies (PINK1 mutant flies (B9), concentrations between 1-10 μM irgasan in food) is listed as “clearly enhance the flight ability”.

In the case of `C/C=C/C/C=C/CCC(=O)[C@H]1O[C@H]1C(N)=O` [cerulenin], the figures for the ATP levels result (in test [1]; in test [2]; with PINK1−/− MEFs) were “did not have an effect”, “elevated ATP levels compared to untreated cells; also recorded: increased levels of ATP” and “elevated ATP levels compared to untreated cells; also recorded: increased levels of ATP”, respectively. Also, the “cardiolipin (CL) levels” value in the test on PINK−/− MEFs is recorded as “almost completely restored the levels of all the CL species that were assessed back to control levels”. The flight ability entry in the test on PINK1 mutant flies (PINK1 mutant flies on food with different concentrations of cerulenin, flight assay every 24 hours) was “increased flight ability; also recorded: a dose-response effect was observed”.
